Laboratory results: US8835147B2, “Cellular production of glucaric acid through recombinant expression of uronate dehydrogenase and myo-inositol oxygenase” (Massachusetts Institute of Technology, priority 2008, dated 2014)
Where “and” joins values, the source holds several entries; their conditions need not be identical. Equal entries are not always repeated. Where two headings read alike, the source gives them in different places.

Tests used:
MIOX from hog kidney = biological target: T1, MIOX from hog kidney (Sus scrofa, UniProt Q8WN98); details: cited from earlier work; for inhibition of MIOX from hog kidney in vitro: reported (30, 31); for inhibition of MIOX activity: at high concentrations, reported previously (30, 31)
T1 sequence (Q8WN98 1-282): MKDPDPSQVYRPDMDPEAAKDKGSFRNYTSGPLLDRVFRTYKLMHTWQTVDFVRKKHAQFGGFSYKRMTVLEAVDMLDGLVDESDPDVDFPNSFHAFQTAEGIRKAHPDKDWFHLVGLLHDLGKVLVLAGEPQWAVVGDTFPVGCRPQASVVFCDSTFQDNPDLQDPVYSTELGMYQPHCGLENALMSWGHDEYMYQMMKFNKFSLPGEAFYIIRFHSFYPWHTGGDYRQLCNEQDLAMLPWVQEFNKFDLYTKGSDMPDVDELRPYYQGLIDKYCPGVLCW

[1] = biological target: T2, uronate dehydrogenase from A. tumefaciens (Agrobacterium fabrum, UniProt Q7CRQ0); assay: Kinetic analysis of purified Udh (initial NADH generation at 340 nm); assay type: biochemical, Agrobacterium tumefaciens str. C58; details: for kcat / Km: purified 6×His Udh, 0 to 10 mM substrate, 1.2 mM NAD^+
T2 construct: 6xHis (C); made in house; host or cells: E. coli BL21 (DE3)
Experimental: (§1) The udh genes from genomic DNA of A. tumefaciens, P. putida, and P. syringae were amplified using primers ATuEQ-F/R, PPuEQ-F/R, and PSuEQ-F/R as listed in Table 4. The PCR products were digested with SacI and HindIII and inserted into the same sites of pET21b containing a 6×His-Tag to construct pETATu, pETPPu, and pETPSu, respectively (Table 4). These plasmids were used to transform E. coli BL21 (DE3) to use for protein expression. The recombinant E. coli BL21 strains were cultivated at 30° C., 250 rpm for 6 hours after IPTG induction. Protein purification was carried out using the ProBond™ Purification System as described by the manufacturer (Invitrogen Corp, Carlsbad, Calif., USA). SDS-PAGE (sodium dodecyl sulfate-polyacrylamide gel electrophoresis) was performed as described in Sambrook et. al. (35). Enzyme activities on substrates of purified proteins were measured by monitoring initial NADH generation at 340 nm and room temperature. Kinetic analysis on glucuronate and galacturonate was carried out using 0 to 10 mM glucuronate or galacturonate and 1.2 mM NAD^+ in 100 mM Tris-HCl, pH 8.0. Kinetic analysis on NAD^+ was performed using 0 to 2 mM NAD^+ and 10 mM glucuronate in 100 mM Tris-HCl, pH 8.0. A series of enzymatic assays were conducted to estimate the initial activity as a function of starting substrate concentration. […] Nonlinear least-squares regression analyses were performed via the Gauss-Newton method as implemented using the intrinsic Matlab® function nlinfit.

[2] = biological target: T3, uronate dehydrogenase from P. syringae (Pseudomonas syringae pv. tomato, UniProt Q888H1); assay: as above; assay type: biochemical, Pseudomonas syringae pv. tomato str. DC3000; details: purified 6×His Udh, 0 to 10 mM substrate, 1.2 mM NAD^+
T3 construct: 6xHis (C); made in house; host or cells: E. coli BL21 (DE3)
T3 sequence (Q888H1 whole entry): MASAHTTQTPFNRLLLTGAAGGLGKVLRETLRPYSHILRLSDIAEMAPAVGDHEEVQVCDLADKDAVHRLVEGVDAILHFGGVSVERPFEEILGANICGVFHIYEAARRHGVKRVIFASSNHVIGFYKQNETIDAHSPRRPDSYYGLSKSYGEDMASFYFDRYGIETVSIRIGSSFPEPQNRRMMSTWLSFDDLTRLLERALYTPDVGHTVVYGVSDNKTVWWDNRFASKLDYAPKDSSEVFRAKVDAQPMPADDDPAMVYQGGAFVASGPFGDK
Experimental: as §1

[3] = biological target: T4, uronate dehydrogenase from P. putida (Pseudomonas putida, UniProt Q88NN6); assay: as above; assay type: biochemical, Pseudomonas putida KT2440; details: purified 6×His Udh, 0 to 10 mM substrate, 1.2 mM NAD^+
T4 construct: 6xHis (C); made in house; host or cells: E. coli BL21 (DE3)
T4 sequence (Q88NN6 whole entry): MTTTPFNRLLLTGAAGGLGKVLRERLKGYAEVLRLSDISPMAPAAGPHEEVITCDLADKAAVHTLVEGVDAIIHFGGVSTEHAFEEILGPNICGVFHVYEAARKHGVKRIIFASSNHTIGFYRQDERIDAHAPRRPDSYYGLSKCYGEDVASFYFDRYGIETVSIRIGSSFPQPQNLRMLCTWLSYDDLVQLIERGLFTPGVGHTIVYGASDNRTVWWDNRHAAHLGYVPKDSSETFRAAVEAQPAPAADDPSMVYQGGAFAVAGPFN
Experimental: as §1

[4] = biological target: T5, uronate dehydrogenase (Udh) of P. syringae (Pseudomonas syringae pv. tomato, UniProt Q888H1); assay: Udh activity in crude E. coli lysates (NADH generation at 340 nm); assay type: biochemical; details: crude E. coli lysates containing the P. syringae udh gene; data not shown
T5 construct: made in house; host or cells: E. coli (DH10B or BL21(DE3)); crude lysate, not purified
T5 sequence (Q888H1 whole entry): as the sequence (Q888H1 whole entry) above
Experimental: Assays for uronate dehydrogenase activity were performed by monitoring NADH co-factor generation at 340 nm as described previously (35, 40). The reaction mixture contained 100 mM sodium phosphate buffer (pH 8.0), 2.5 mM glucuronic acid, 0.9 mM NAD^+, and bacterial lysate prepared as described above.
Bacterial lysates for enzymatic analysis were prepared by the freeze-thaw method. E. coli strains harboring udh genes were grown overnight in LB medium containing 0.1 mM IPTG (Isopropyl β-D-1-thiogalactopyranoside). Pellets were re-suspended in 1 mg/mL lysozyme solution and incubated on ice for 30 min. The suspensions were frozen in liquid nitrogen then thawed in a 37° C. water bath. This step was repeated five times. Cell lysates were centrifuged at 14,000 rpm at 4° C. for 15 min, and the supernatant was used for enzymatic analysis. Udh activities on glucuronate were measured by monitoring NADH (nicotinamide adenine dinucleotide, reduced) generation at 340 nm (38). The reaction mixture was consisted of 2.5 mM glucuronate, 0.9 mM NAD^+ (nicotinamide adenine dinucleotide), and 100 mM sodium phosphate buffer. The reaction was initiated by the addition of lysate to the reaction mixture at room temperature, and monitored. […] The total protein concentration was determined using the Bradford method (Bradford (1976) Anal Biochem 72:248-54). […]

E. coli = E. coli growth and glucose consumption with added organic acid salts; assay type: cell-based, Escherichia coli; details: added at concentrations as high as 10 g/L; data not shown
[5] = Thermal stability of purified Udhs (30 minutes at temperature, then standard assay); assay type: physicochemical; details: purified Udh, FIG. 10b
Experimental: The impact of temperature was evaluated in two ways. First, the thermal stability was examined by exposing enzyme preparations to various temperatures for 30 minutes, then performing the enzyme assay under standard conditions. […] The activity remained near 80% of maximum after exposure of the A. tumefaciens preparation to 37° C., while the corresponding activities for both of the other enzymes was below 20% of maximum. The stability profiles for both Pseudomonas enzymes were similar to one another. Finally, enzyme activity was evaluated for assays conducted under increasing temperatures. These activities followed a general trend of increasing activity with increasing temperature between 4 and 42° C., which is consistent with an Arrhenius-type dependence of the catalytic rate constant on temperature (FIG. 10c).

[6] = 100 mM Tris-HCl pH 8.0, room temperature

O=C(O)[C@@H](O)[C@@H](O)[C@H](O)[C@@H](O)C(=O)O [D-glucaric acid]
inhibition of MIOX from hog kidney in vitro (MIOX from hog kidney): inhibited

O=C[C@H](O)[C@H]1OC(=O)[C@@H](O)[C@H]1O [D-glucuronolactone]
inhibition of MIOX from hog kidney in vitro (MIOX from hog kidney): not

[Fe+2] [Fe^2+]
inhibition of MIOX activity (MIOX from hog kidney): inhibited

O=C(O)[C@H]1O[C@H](O)[C@H](O)[C@@H](O)[C@H]1O [Galacturonate, galacturonate]
kcat [1, 6]: 92 ± 14 s⁻¹ and 91.85 ± 14.26 s⁻¹
Km ([1]; pH 8.0): 160 ± 120 µM
kcat ([1]; pH 8.0): 0.9 ± 0.14 10^2 · 1/s
kcat [2, 6]: 24 ± 1 s⁻¹ and 24.02 ± 0.73 s⁻¹
Km ([2]; pH 8.0): 40 µM
kcat ([2]; pH 8.0): 0.2 ± 0.01 10^2 · 1/s
kcat [3, 6]: 30 ± 3 s⁻¹ and 30.08 ± 3.12 s⁻¹
Km ([3]; pH 8.0): 100 ± 60 µM
kcat ([3]; pH 8.0): 0.3 ± 0.03 10^2 · 1/s

O=C(O)[C@H]1O[C@@H](O)[C@H](O)[C@@H](O)[C@@H]1O [Glucuronate, glucuronate]
kcat (highest rate constant) [1]: 190 s⁻¹
kcat of A. tumefaciens enzyme relative to the Pseudomonas enzymes ([1]; glucuronate as substrate): more than 2 fold
kcat [1, 6]: 194 ± 12 s⁻¹ and 193.90 ± 11.84 s⁻¹
Km ([1]; pH 8.0): 370 ± 120 µM
kcat ([1]; pH 8.0): 1.9 ± 0.12 10^2 · 1/s
kcat (highest rate constant) ([1]; unit not given): 1.9×10^2
kcat [2, 6]: 74 ± 3 s⁻¹ and 73.77 ± 3.13 s⁻¹
Km ([2]; pH 8.0): 280 ± 70 µM
kcat ([2]; pH 8.0): 0.7 ± 0.03 10^2 · 1/s
inhibition of MIOX from hog kidney in vitro (MIOX from hog kidney): not
kcat [3, 6]: 55 ± 3 s⁻¹ and 54.57 ± 2.60 s⁻¹
Km ([3]; pH 8.0): 250 ± 70 µM
kcat ([3]; pH 8.0): 0.5 ± 0.03 10^2 · 1/s

NC(=O)c1ccc[n+]([C@@H]2O[C@H](COP(=O)([O-])OP(=O)(O)OC[C@H]3O[C@@H](n4cnc5c(N)ncnc54)[C@H](OP(=O)(O)O)[C@@H]3O)[C@@H](O)[C@H]2O)c1 [NADP^+]
utilization as a co-factor [4]: not

NC(=O)c1ccc[n+]([C@@H]2O[C@H](COP(=O)([O-])OP(=O)(O)OC[C@H]3O[C@@H](n4cnc5c(N)ncnc54)[C@H](O)[C@@H]3O)[C@@H](O)[C@H]2O)c1 [NAD^+, nicotinamide adenine dinucleotide]
utilization as a co-factor [4]: utilized

N[C@@H](CS)C(=O)O [cysteine]
inhibition of MIOX activity (MIOX from hog kidney): inhibited

O=C([O-])[C@@H](O)[C@@H](O)[C@H](O)[C@@H](O)C(=O)[O-].[K+].[K+] [potassium glucarate]
E. coli growth and glucose consumption (E. coli): not observed to be affected

O=C[C@H](O)[C@@H](O)[C@H](O)[C@H](O)C(=O)[O-].[Na+] [sodium glucuronate]
E. coli growth and glucose consumption (E. coli): not observed to be affected

B1: A. tumefaciens Udh: 6×-His tagged uronate dehydrogenase from A. tumefaciens str. C58 (SEQ ID NO:24), expressed in E. coli and purified (protein, listed as Agrobacterium tumefaciens)
chain: MKRLLVTGAAGQLGRVMRERLAPMAEILRLADLSPLDPAGPNEECVQCDLADANAVNAMVAGCDGIVHLGGISVEKPFEQILQGNIIGLYNLYEAARAHGQPRIVFASSNHTIGYYPQTERLGPDVPARPDGLYGVSKCFGENLARMYFDKFGQETALVRIGSCTPEPNNYRMLSTWFSHDDFVSLIEAVFRAPVLGCPVVWGASANDAGWWDNSHLGFLGWKPKDNAEAFRRHITETTPPPDPNDALVRFQGGTFVDNPIFKQS
modifications: 6xHis tag
activity after exposure to 37° C. for 30 minutes [5]: ~80 % of maximum
